Results published in patent US7767398B2, “Means and methods for diagnosing and treating affective disorders” (Affectis Pharmaceuticals AG, priority 2003, dated 2010).

Key:
[1] = test system: mice; assay: Porsolt's forced swim test; assay type: in vivo, mouse; conditions: 100 nM KN-62 or 10 μM oATP, 1 μl each side, dentate gyrus; 24 hours after injection; DBA/201a mice
Experimental: Further validation of role of P2X7R in affective disorders was performed by examining its expression pattern in response to stress and treatment with antidepressant drugs. […] In parallel, a control group of mice was given vehicle solution (i.e. without paroxetine) using the same treatment regiment while a second control group of mice was left undisturbed and stress-free (i.e. untreated) during the same period of the experiments. At the end of the long-term treatment, part of the mice of each experimental group were tested in the dark/light box (test of anxiety behaviour) and in the Porsolt's forced swim test (test of depressive-like behaviour) to confirm the effectiveness of the treatment (FIG. 5). […] The other part of the experimental groups (i.e. mice without test experience) were decapitated, brains rapidly removed and frozen at −80° C. until usage.
The effects of P2X7R inhibition on depressive-like behaviour was assessed 24 hours and 48 hours after infusion of siRNA, control or vehicle according to the standard test paradigm, the Porsolt's forced swim test (Porsolt et al., Arch. Int. Pharmacodym. 229 (1977), 327-336; Porsolt, Rev. Neurosci. 11 (2000), 53-58). […] Compared to vehicle application, no influence of control double stranded RNA (5′-[…]-3′) on floating behaviour (passive stress coping) was detected. […] This interpretation becomes moreover evident when the effects of antidepressants on passive stress coping behaviour in the forced swim test are visualized (FIG. 5). Passive stress coping behaviour increased after acute intrahippocampal injection (bilateral, dentate gyrus) of siRNA targeting P2X7R. The Porsolt's forced swim test is a standard test used to assess the effectiveness of antidepressants and it has been proven by many studies that the test is selectively sensitive for these effects, given that the right animal model is used. The paradigm has been widely used to test pharmaceutical compounds and to validate animal models of depression, which show an increase in passive behaviour as do the mice where P2X7R has been inhibited (siRNA).
The forced swim test is a standard test that measures primary stress-induced reductions in avoidance or escape, termed behavioural despair. The test is used to determine the effectiveness of antidepressants, test new pharmaceutical compounds and validate animal models of depression (Porsolt et al., Arch. Int. Pharmacodym. 229 (1977), 327-336; Porsolt, Rev. Neurosci. 11 (2000), 53-58; Rénéric et al., Behav. Brain Res. 136 (2002), 521-532; Page et al., Psychopharmacology 165 (2003), 194-201; Kelliher et al., Psychoneuroendocrinology 28 (2003), 332-347). The test consists of placing a mouse for a period of 5 minutes into a glass cylinder containing water. Under such circumstances, the mouse cannot touch the bottom of the cylinder and is thus forced to swim. Time, latency and frequency of struggling versus floating are scored as behavioural parameters. […] Increased struggling (i.e. active attempts to escape) indicates active coping behaviour that can be interpreted as an improvement of depression-like symptoms. For example, treatment with serotonergic antidepressants reduce the total time spent floating (Borsini, Neurosci. Biobehav. Rev. 19 (1995), 377-395; Redrobe and Bourin, Psychopharmacology 138 (1998), 198-206, and in parallel increases the time of active behaviour (i.e. swimming or struggling; Lucki et al., Psychopharmacology 155 (2001), 315-322).
The behaviour of individual mice was assessed using the Porsolt's forced swim test 24 hours after injection of vehicle solution, KN-62, or oATP. A pre-exposure of 5 minutes to the test was performed 15-17 minutes after administration of vehicle, KN-62, or oATP. A description of the Porsolt's forced swim test is given in example 9. […]

[2] = target: T1, P2X7R (Mus musculus, UniProt Q9Z1M0); assay: Entry of ethidium bromide into HT-22 cells; assay type: cell-based; conditions: pre-incubation 60 minutes with 100 μM o-ATP before agonist and ethidium bromide
T1 construct: an immortalised mouse hippocampal cell line expressing the endogenous P2X7 gene; endogenous in cells; host or cells: HT-22 mouse hippocampal cell line
T1 sequence (Q9Z1M0 1-595): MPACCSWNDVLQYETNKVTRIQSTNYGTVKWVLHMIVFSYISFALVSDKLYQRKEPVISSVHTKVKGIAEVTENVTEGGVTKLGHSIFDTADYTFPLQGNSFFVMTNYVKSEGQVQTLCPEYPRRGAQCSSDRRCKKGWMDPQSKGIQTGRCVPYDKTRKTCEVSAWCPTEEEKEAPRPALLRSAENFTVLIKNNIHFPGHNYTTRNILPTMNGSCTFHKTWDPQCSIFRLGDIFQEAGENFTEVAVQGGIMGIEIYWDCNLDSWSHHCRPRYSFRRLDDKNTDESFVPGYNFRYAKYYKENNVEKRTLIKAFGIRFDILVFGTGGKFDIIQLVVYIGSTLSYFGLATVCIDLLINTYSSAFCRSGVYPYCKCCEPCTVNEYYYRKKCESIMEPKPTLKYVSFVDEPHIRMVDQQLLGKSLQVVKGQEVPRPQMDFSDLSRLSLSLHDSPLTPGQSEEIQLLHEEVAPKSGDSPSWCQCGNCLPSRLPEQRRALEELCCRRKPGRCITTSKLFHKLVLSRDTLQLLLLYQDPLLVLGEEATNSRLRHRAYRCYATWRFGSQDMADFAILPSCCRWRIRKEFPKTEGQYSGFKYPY
Description: Yet another method of measuring P2X7R activity involves the entry of ethidium bromide into P2X7R expressing cells. Activation of P2X7R by an agonist allows the entry of ethidium bromide which binds nuclear DNA and emits a fluorescence signal. Alternatively, the propidium dye YOPRO-1 can be substituted for ethidium bromide. An increase in fluorescence can be used as a measure of P2X7 receptor activation. Therefore, the assay can be used to test and quantify the effect of an agent or compound with agonist properties on P2X7R. In the present example, 10^3 HT-22 cells were seeded per well in a 96-well flat bottom microtitre plates and incubated at 37° C./5% CO2 in DMEM medium containing 10% FCS until the cells attached to the culture surface. […] The number of fluorescent cells which have integrated the ethidium bromide to the DNA can then be counted using a fluorescent microscope (Zeiss, Germany). […] Alternatively, ethidium bromide fluorescence can be measured using a Perkin-Elmer fluorescent plate reader (excitation 520 nm, emission 595 nm, slit widths: Ex 15 nm, Em 20 nm). From the readings obtained, a pIC50 figure can be calculated for each candidate agent or compound. […] The specificity of an agonist for P2X7R can be evaluated by pre-incubation of the cells for 60 minutes with 100 μM o-ATP before adding the agonist and ethidium bromide dye.

[3] = target: T1, P2X7R; assay: Calcium influx into HT-22 cells (Oregon green AM ester); assay type: cell-based; design: dose or concentration left out as unconfirmed; conditions: HT-22 cells pre-treated with oATP for 1 hour before BzATP
Description: Since P2X7R is an ATP-gated ion channel which allows the entry of calcium and sodium ions into cells, a method for identifying P2X7R agonist was established by monitoring calcium influx into HT-22 cells. […] Calcium movement into the cells was visualised under a fluorescent microscope with a fluorescein filter (wavelength 492/517 nm). Oregon green AM ester is a fluorescent dye that binds to intracellular calcium. […] Alternatively, Oregon green AM ester can be replaced by Fluo-3, fluo-4, fluo-5F, fluo-5N, fluo4FF, Fluo4 dextran, Fluo-3 AM, Fluo-4 AM, Fluo-5F AM, Fluo-5N AM and Fluo4FF AM (Molecular Probes). Calcium influx in HT-22 cells can also be measured in 96-well and 384-well microplate using the Calcium Plus Assay Kit (Molecular Device) or FLIPR® Calcium Assay Kit for Fluorometric Imaging Plate Reader Systems (Molecular Device). HT-22 cells can be replaced by any cells expressing P2X7R, including cells that have been genetically modified by introducing an exogenous P2X7 gene.
Activation of P2X7R by the agonist was inhibited by oATP (FIG. 18) as illustrated by the absence of green fluorescence in the cells.

Nc1ncnc2c1ncn2[C@@H](C=O)O[C@@H](C=O)COP(=O)(O)OP(=O)(O)OP(=O)(O)O [oATP]
active escape attempts (time, frequency, latency of struggling) in the forced swim test [1]: no changes | passive behaviour (time, frequency, latency of floating) in the forced swim test [1]: no changes | number of fluorescent cells after antagonist pre-incubation (ethidium bromide entry) [2]: reduction in the number of fluorescent cells | activation of P2X7R by the agonist (BzATP) after antagonist pre-treatment, calcium influx [3]: inhibited
